# Measurements from PMC7782499, “Progerinin, an optimized progerin-lamin A binding inhibitor, ameliorates premature senescence phenotypes of Hutchinson-Gilford progeria syndrome” (Communications Biology, 2021).
# Legend:
# Lmna G609G/+ mouse = assay: Histology analysis (Masson Trichrome, H&E); format: in vivo; details: Lmna G609G/+ mice, oral 50 mg/kg daily, 8 weeks
# Description: Tissue specimens were fixed in 4% PFA and embedded in paraffin. Paraffin blocks were sectioned and transferred onto adhesive-coated slides. After deparaffinization and rehydration, tissue sections were stained with Masson Trichrome. Histology analysis was performed by BioLead Inc. (Seoul, Korea).
# Fig. S11. Histological analysis of age- matched Lmna+/+ mice (left), untreated Lamn G609G/+ mice (middle) and progerinin- treated LmnaG609G/+ mice (right, Lmna +/+: n = 4; un tr e at e d Lmna G609G/+: n = 6; pr o ge r in -treated LmnaG609G/+: n=6). A -C. Masson Trichrome staining for fibrosis analysis was performed after 8-week treatment. A. Reduction of fibrosis in heart after administration of progeirnin in L mn a G609G transgenic mice.
# The collagen-rich fibrotic area (blue) is widely distributed in untreated LmnaG609G/+ mi c e compared to Lmna+/+ and progerin- treated LmnaG609G/+ mi c e. B. Fibrosis in liver of Lmna G609G transgenic mice was reduced by progerinin. C. Unt r eat ed LmnaG609G/+ mi c e show a relatively loose connection between blood vessel walls and tissues in lungs. D -E. Hematoxylin and Eosin (H&E) staining was performed to compare skin and bones of Lmna +/+ and LmnaG609G mice. Conditions of foot pad skin (D), vertebra (E), and femur (F) of Lmna +/+ and progerin-treated LmnaG609G/+ mice were better than those of untreated Lmna G609G/+ mice. […]
# HGPS cells = assay: RT-PCR of progerin/prelamin A, CENP-A, IL-6, IL-8, BRCA1 transcripts; format: cell-based, human
# Description: For RT-PCR, total cellular RNA was extracted using RNA extraction kit (Qiagen). Gene expression studies were performed using cDNA synthesized from total RNA with MMLV RT (Invitrogen, Carlsbad, USA) and random hexamers. PCR from genomic DNA was perform using DiaStar Taq DNA polymerase (SolGent, Daejeon, Korea) and 50 ng of cDNA. Wild-type prelamin A cDNA was synthesized by PCR amplification using a forward primer, 5′-[…]-3′ and a reverse primer, 5′-[…]-3′. The thermal cycling conditions were as follows: 94°C for 3 min (activation), 94°C for 1 min (denaturation), 61°C for 1 min (annealing) and 72°C for 42 sec (extension) up to 35 cycles. The PCR products were analyzed through 2% agarose electrophoresis and DNA was visualized by ethidium bromide staining and UV photography. Levels of other transcripts were also performed with the following oligonucleotide primers: CENP-A, 5′-[…]-3′ and 5′-[…]-3′; BRCA1, 5′-[…]-3′ and 5′-[…]-3′; IL-6, 5′-[…]-3′ and 5′-[…]-3′; IL-8, 5′-[…]-3′ and 5′-[…]-3′ and GAPDH 5′-[…]-3′ and 5′-[…]-3′.
# Fig. S3. Chemical screening with JH4 derivatives (a total of 53 chemicals except JH010 and SLC -D011 were used). A. Summarized tables for effects of JH4 derivatives. ‘+’ means s t re ngt h of binding affinity or expression level after treatment of chemicals. […]
# HGPS patients = details: trial without placebo; cited from earlier work
SMILES,Fibrosis in heart and liver (Masson Trichrome) (Lmna G609G/+ mouse),mRNA expression of progerin (HGPS cells),Extension of life span (HGPS patients)
CC1(C)Oc2cc3oc(=O)ccc3cc2C[C@@H]1OC/C=C/c1ccccc1 [SLC-D011],reduced,without alteration of mRNA expression of progerin,
"NC(=O)N1CCC(CC(=O)N2CCC([C@H]3c4ncc(Br)cc4CCc4cc(Cl)cc(Br)c43)CC2)CC1 [lonafarnib, reference compound]",,,~ 2 years
